The values that follow come from patent publication US20240025884A1 (Dong-A ST Co., Ltd., priority 2022, published 2024).

What is called IC50 is the midpoint of a concentration-inhibition curve.

For this test, the target named is GCN2 (Homo sapiens (Human), UniProt Q9P2K8). Description: GCN2 Biochemical Assay (TR-FRET, GFP-eIF2S1 substrate phosphorylation). To be noted: read-out: IC50 (GCN2 Inhibitory Activity). The method in brief: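 In-house GCN2 (1.6 nM 2× stock) phosphorylates GFP-eIF2S1 (50 nM 2× stock) with ATP (0.2 mM 2× stock) and tRNA, pH 7.5, 70 min at room temperature; 10-point 3.16-fold compound series. TR-FRET detection with Tb-anti-phospho antibody, 2–3 h, Ex 340/Em 490/520 nm; artifact plate spiked with phospho-substrate.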
Chain of GCN2 (Q9P2K8 whole entry): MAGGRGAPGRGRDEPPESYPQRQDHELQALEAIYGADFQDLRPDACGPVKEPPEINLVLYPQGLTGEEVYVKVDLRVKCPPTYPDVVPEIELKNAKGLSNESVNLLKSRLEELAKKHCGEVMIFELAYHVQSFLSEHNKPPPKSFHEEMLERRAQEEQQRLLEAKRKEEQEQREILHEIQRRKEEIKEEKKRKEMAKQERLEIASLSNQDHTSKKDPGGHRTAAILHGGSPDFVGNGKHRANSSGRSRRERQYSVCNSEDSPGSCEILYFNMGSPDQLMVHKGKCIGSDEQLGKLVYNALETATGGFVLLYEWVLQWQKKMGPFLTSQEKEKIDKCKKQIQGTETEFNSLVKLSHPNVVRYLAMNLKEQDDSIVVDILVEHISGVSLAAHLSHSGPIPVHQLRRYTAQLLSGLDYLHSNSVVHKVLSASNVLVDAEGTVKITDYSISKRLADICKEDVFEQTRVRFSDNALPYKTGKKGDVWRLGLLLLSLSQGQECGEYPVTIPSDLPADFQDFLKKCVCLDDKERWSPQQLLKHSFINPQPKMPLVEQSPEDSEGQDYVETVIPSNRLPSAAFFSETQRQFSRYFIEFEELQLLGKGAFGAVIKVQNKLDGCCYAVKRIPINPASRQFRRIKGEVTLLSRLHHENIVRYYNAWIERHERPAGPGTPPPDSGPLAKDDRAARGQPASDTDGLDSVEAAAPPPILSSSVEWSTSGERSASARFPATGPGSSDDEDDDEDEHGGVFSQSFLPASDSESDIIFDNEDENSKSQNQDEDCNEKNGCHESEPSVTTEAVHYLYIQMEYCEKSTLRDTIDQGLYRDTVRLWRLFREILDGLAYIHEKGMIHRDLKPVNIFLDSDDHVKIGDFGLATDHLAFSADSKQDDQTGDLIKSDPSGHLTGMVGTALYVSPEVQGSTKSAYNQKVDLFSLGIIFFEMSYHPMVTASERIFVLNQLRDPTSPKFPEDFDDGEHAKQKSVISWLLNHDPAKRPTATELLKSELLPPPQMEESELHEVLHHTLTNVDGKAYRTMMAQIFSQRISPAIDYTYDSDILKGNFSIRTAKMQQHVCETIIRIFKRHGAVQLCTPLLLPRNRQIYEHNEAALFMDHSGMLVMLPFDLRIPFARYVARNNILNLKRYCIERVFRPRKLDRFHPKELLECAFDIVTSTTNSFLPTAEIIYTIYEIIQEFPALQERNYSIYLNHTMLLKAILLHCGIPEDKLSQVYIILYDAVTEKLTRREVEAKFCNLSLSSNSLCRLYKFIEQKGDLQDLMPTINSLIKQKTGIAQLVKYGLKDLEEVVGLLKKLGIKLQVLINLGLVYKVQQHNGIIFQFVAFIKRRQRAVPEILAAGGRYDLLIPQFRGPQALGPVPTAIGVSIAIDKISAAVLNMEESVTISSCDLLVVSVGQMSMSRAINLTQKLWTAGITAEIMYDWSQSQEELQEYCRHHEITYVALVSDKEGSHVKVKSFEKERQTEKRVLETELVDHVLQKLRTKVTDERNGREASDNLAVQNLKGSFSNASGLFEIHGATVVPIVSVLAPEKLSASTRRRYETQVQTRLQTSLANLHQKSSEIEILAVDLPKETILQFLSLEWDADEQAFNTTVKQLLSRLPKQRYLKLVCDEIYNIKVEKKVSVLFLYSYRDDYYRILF
Background: TR-FRET usually uses a lanthanide donor and a delayed reading to cut background.

Regarding `Cc1cnc(Nc2cc(C)n(C)n2)nc1-c1c[nH]c2c(NC(=O)CN3CCCC(Oc4cc(C(=O)NC5CC5)on4)C3)cccc12` (stereo not drawn) [Example 44, N-cyclopropyl-3-((1-(2-((3-(2-((1,5-dimethyl-1H-pyrazol-3-yl)amino)-5-methylpyrimidin-4-yl)-1H-indol-7-yl)amino)-2-oxoethyl)piperidin-3-yl)oxy)isoxazole-5-carboxamide], the IC50 was in the range of 100 to 1000 nM.
For `COC(=O)c1[nH]ccc1O[C@H]1CCN(CC(=O)Nc2cccc3c(-c4nc(Nc5cc(C)n(C)n5)ncc4C)c[nH]c23)C1` [Example 120, methyl (S)-3-((1-(2-((3-(2-((1,5-dimethyl-1H-pyrazol-3-yl)amino)-5-methylpyrimidin-4-yl)-1H-indol-7-yl)amino)-2-oxoethyl)pyrrolidin-3-yl)oxy)-1H-pyrrole-2-carboxylate], the IC50 is under 10 nM.
In the case of `Cc1cnc(Nc2cc(C)n(C)n2)nc1-c1c[nH]c2c(N3Cc4ccc([N+](=O)[O-])cc4C3=O)cccc12` [Example 268, 2-(3-(2-((1,5-dimethyl-1H-pyrazol-3-yl)amino)-5-methylpyrimidin-4-yl)-1H-indol-7-yl)-6-nitroisoindolin-1-one] it was under 10 nM.
Regarding `Cc1cnc(Nc2cc(C)n(C)n2)nc1-c1c[nH]c2c(N3Cc4c(cccc4-c4ccc(N5CCOCC5)nc4)C3=O)cccc12` [Example 425, 2-(3-(2-((1,5-dimethyl-1H-pyrazol-3-yl)amino)-5-methylpyrimidin-4-yl)-1H-indol-7-yl)-4-(6-morpholinopyridin-3-yl)isoindolin-1-one], the half-maximal inhibitory concentration (IC50) was under 10 nM.
In the case of `Cc1cnc(Nc2cc(C)n(C)n2)nc1-c1c[nH]c2c(NC(=O)CN3CC[C@H](Oc4ncc(F)c(N5CCCC5)n4)C3)cccc12` [Example 186, (S)-N-(3-(2-((1,5-dimethyl-1H-pyrazol-3-yl)amino)-5-methylpyrimidin-4-yl)-1H-indol-7-yl)-2-(3-((5-fluoro-4-(pyrrolidin-1-yl)pyrimidin-2-yl)oxy)pyrrolidin-1-yl)acetamide] it was under 10 nM; in that of `Cc1cnc(Nc2cc(C)n(C)n2)nc1-c1c[nH]c2c(NC(=O)CN3CC[C@H](Oc4cc(F)nc(NC5CC5)n4)C3)cccc12` [Example 234, (S)-2-(3-((2-(cyclopropylamino)-6-fluoropyrimidin-4-yl)oxy)pyrrolidin-1-yl)-N-(3-(2-((1,5-dimethyl-1H-pyrazol-3-yl)amino)-5-methylpyrimidin-4-yl)-1H-indol-7-yl)acetamide], under 10 nM.
In the case of `CNc1cc(O[C@H]2CCN(CC(=O)Nc3cccc4c(-c5nc(Nc6cc(C)n(C)n6)ncc5C)c[nH]c34)C2)ncn1` [Example 141, (S)-N-(3-(2-((1,5-dimethyl-1H-pyrazol-3-yl)amino)-5-methylpyrimidin-4-yl)-1H-indol-7-yl)-2-(3-((6-(methylamino)pyrimidin-4-yl)oxy)pyrrolidin-1-yl)acetamide] it was under 10 nM; in that of `Cc1cnc(Nc2cc(C)n(C)n2)nc1-c1c[nH]c2c(NC(=O)CN3CCC(O)C3)cccc12` (stereo not drawn) [Example 70, N-(3-(2-((1,5-dimethyl-1H-pyrazol-3-yl)amino)-5-methylpyrimidin-4-yl)-1H-indol-7-yl)-2-(3-hydroxypyrrolidin-1-yl)acetamide], 10 to 100 nM.
Regarding `Cc1cnc(Nc2cc(C)n(C)n2)nc1-c1c[nH]c2c(NC(=O)CN3CCC(Oc4ccncc4)CC3)cccc12` [Example 40, N-(3-(2-((1,5-dimethyl-1H-pyrazol-3-yl)amino)-5-methylpyrimidin-4-yl)-1H-indol-7-yl)-2-(4-(pyridin-4-yloxy)piperidin-1-yl)acetamide], the IC50 fell in the range of 100 to 1000 nM.
For `Cc1cnc(Nc2cc(C)n(C)n2)nc1-c1c[nH]c2c(NC(=O)CN3CC=C(c4ccncc4)CC3)cccc12` [Example 34, 2-(3,6-dihydro-[4,4′-bipyridin]-1(2H)-yl)-N-(3-(2-((1,5-dimethyl-1H-pyrazol-3-yl)amino)-5-methylpyrimidin-4-yl)-1H-indol-7-yl)acetamide] the value was 100 to 1000 nM.
For `Cc1cnc(Nc2cc(C)n(C)n2)nc1-c1c[nH]c2c(NC(=O)CN3CC[C@@H](Nc4ccncn4)C3)cccc12` [Example 48, (R)-N-(3-(2-((1,5-dimethyl-1H-pyrazol-3-yl)amino)-5-methylpyrimidin-4-yl)-1H-indol-7-yl)-2-(3-(pyrimidin-4-ylamino)pyrrolidin-1-yl)acetamide] the value was 10 to 100 nM; for `Cc1cnc(Nc2cc(C)n(C)n2)nc1-c1c[nH]c2c(N3Cc4c(cccc4-c4ccc5c(c4)CCC5)C3=O)cccc12` [Example 452, 4-(2,3-dihydro-1H-inden-5-yl)-2-(3-(2-((1,5-dimethyl-1H-pyrazol-3-yl)amino)-5-methylpyrimidin-4-yl)-1H-indol-7-yl)isoindolin-1-one], 100 to 1000 nM; for `CC(=O)Nc1nccc(O[C@H]2CCN(CC(=O)Nc3cccc4c(-c5nc(Nc6cc(C)n(C)n6)ncc5C)c[nH]c34)C2)n1` [Example 196, (S)-2-(3-((2-acetamidopyrimidin-4-yl)oxy)pyrrolidin-1-yl)-N-(3-(2-((1,5-dimethyl-1H-pyrazol-3-yl)amino)-5-methylpyrimidin-4-yl)-1H-indol-7-yl)acetamide], under 10 nM.
For `Cc1cnc(Nc2cc(C)n(C)n2)nc1-c1c[nH]c2c(NC(=O)CN3CC[C@H](Oc4ncc(F)c(N)n4)C3)cccc12` [Example 176, (S)-2-(3-((4-amino-5-fluoropyrimidin-2-yl)oxy)pyrrolidin-1-yl)-N-(3-(2-((1,5-dimethyl-1H-pyrazol-3-yl)amino)-5-methylpyrimidin-4-yl)-1H-indol-7-yl)acetamide] the value was 10 to 100 nM; for `CCCNc1cc(O[C@H]2CCN(CC(=O)Nc3cccc4c(-c5nc(Nc6cc(C)n(C)n6)ncc5C)c[nH]c34)C2)ncn1` [Example 143, (S)-N-(3-(2-((1,5-dimethyl-1H-pyrazol-3-yl)amino)-5-methylpyrimidin-4-yl)-1H-indol-7-yl)-2-(3-((6-(propylamino)pyrimidin-4-yl)oxy)pyrrolidin-1-yl)acetamide], under 10 nM; for `Cc1cnc(Nc2cc(C)n(C)n2)nc1-c1c[nH]c2c(N3Cc4cccc(C5=CCCCC5)c4C3=O)cccc12` [Example 384, 7-(cyclohex-1-en-1-yl)-2-(3-(2-((1,5-dimethyl-1H-pyrazol-3-yl)amino)-5-methylpyrimidin-4-yl)-1H-indol-7-yl)isoindolin-1-one], 100 to 1000 nM.
For `Cc1cnc(Nc2cc(C)n(C)n2)nc1-c1c[nH]c2c(NC(=O)C(=O)N3CC[C@H](Oc4ccnc(NC5CC5)n4)C3)cccc12` [Example 20, (S)-2-(3-((2-(cyclopropylamino)pyrimidin-4-yl)oxy)pyrrolidin-1-yl)-N-(3-(2-((1,5-dimethyl-1H-pyrazol-3-yl)amino)-5-methylpyrimidin-4-yl)-1H-indol-7-yl)-2-oxoacetamide], the IC50 was under 10 nM.
In the case of `Cc1ncc(Br)c(O[C@H]2CCN(CC(=O)Nc3cccc4c(-c5nc(Nc6cc(C)n(C)n6)ncc5C)c[nH]c34)C2)n1` [Example 97, (S)-2-(3-((5-bromo-2-methylpyrimidin-4-yl)oxy)pyrrolidin-1-yl)-N-(3-(2-((1,5-dimethyl-1H-pyrazol-3-yl)amino)-5-methylpyrimidin-4-yl)-1H-indol-7-yl)acetamide] it was 10 to 100 nM; in that of `Cc1cnc(Nc2cc(C)n(C)n2)nc1-c1c[nH]c2c(N3Cc4c(NC(=O)C5CCCN(C)C5)cccc4C3=O)cccc12` (stereo not drawn) [Example 307, N-(2-(3-(2-((1,5-dimethyl-1H-pyrazol-3-yl)amino)-5-methylpyrimidin-4-yl)-1H-indol-7-yl)-1-oxoisoindolin-4-yl)-1-methylpiperidine-3-carboxamide], under 10 nM.
Take `Cc1cnc(Nc2cc(C)n(C)n2)nc1-c1c[nH]c2c(NC(=O)CN3CCC(Oc4cc(C(F)(F)F)n(C)n4)C3)cccc12` (stereo in doubt) [Example 117, (R)-N-(3-(2-((1,5-dimethyl-1H-pyrazol-3-yl)amino)-5-methylpyrimidin-4-yl)-1H-indol-7-yl)-2-(3-((1-methyl-5-(trifluoromethyl)-1H-pyrazol-3-yl)oxy)pyrrolidin-1-yl)acetamide]: the IC50 lay in the range of 10 to 100 nM.
In the case of `Cc1cnc(Nc2cc(C)n(C)n2)nc1-c1c[nH]c2c(NC(=O)CN3CC[C@H](Oc4nccc(C5=CCC(C)(C)CC5)n4)C3)cccc12` [Example 252, (S)-N-(3-(2-((1,5-dimethyl-1H-pyrazol-3-yl)amino)-5-methylpyrimidin-4-yl)-1H-indol-7-yl)-2-(3-((4-(4,4-dimethylcyclohex-1-en-1-yl)pyrimidin-2-yl)oxy)pyrrolidin-1-yl)acetamide] it was 10 to 100 nM; in that of `Cc1cnc(Nc2cc(C)n(C)n2)nc1-c1c[nH]c2c(NC(=O)CN3CC[C@H](Oc4nc(N5CCOCC5)ncc4F)C3)cccc12` [Example 232, (S)-N-(3-(2-((1,5-dimethyl-1H-pyrazol-3-yl)amino)-5-methylpyrimidin-4-yl)-1H-indol-7-yl)-2-(3-((5-fluoro-2-morpholinopyrimidin-4-yl)oxy)pyrrolidin-1-yl)acetamide], under 10 nM.
For `Cc1cnc(Nc2cc(C)n(C)n2)nc1-c1c[nH]c2c(NC(=O)CN3CC[C@H](Oc4ccnc(N5CCN(C)CC5)n4)C3)cccc12` [Example 225, (S)-N-(3-(2-((1,5-dimethyl-1H-pyrazol-3-yl)amino)-5-methylpyrimidin-4-yl)-1H-indol-7-yl)-2-(3-((2-(4-methylpiperazin-1-yl)pyrimidin-4-yl)oxy)pyrrolidin-1-yl)acetamide] the value was under 10 nM.
On to `Cc1cnc(Nc2cc(C)n(C)n2)nc1-c1c[nH]c2c(NC(=O)CN3CC[C@H](Oc4cc(C(=O)N(C)C)on4)C3)cccc12` [Example 125, (S)-3-((1-(2-((3-(2-((1,5-dimethyl-1H-pyrazol-3-yl)amino)-5-methylpyrimidin-4-yl)-1H-indol-7-yl)amino)-2-oxoethyl)pyrrolidin-3-yl)oxy)-N,N-dimethylisoxazole-5-carboxamide], for which the IC50 was 10 to 100 nM.
